Assay results reported in US20240199598A1 (MITOIMMUNE THERAPEUTICS INC., priority 2021, published 2024).
Entries after “also recorded” stand apart in the source; their conditions may differ. Read-outs that look alike come from different tables or passages of the source.

Tests used:
[1] = Simulated gastrointestinal fluid solubility test (SGF, FaSSIF, FeSSIF); assay type: physicochemical; details: fed state simulated intestinal fluid (FeSSIF), 37 °C, pH 4.98, fessif, thermodynamic from solid
Protocol: As simulated gastrointestinal fluid media (Biorelevant dissolution media) used for environment assessment in the simulated gastrointestinal tract, simulated gastric fluid (SGF), fasted state simulated intestinal fluid (FaSSIF), and fed state simulated intestinal fluid (FeSSIF) were used, and a detailed description of the test is as follows.
All vials were placed on a hot plate stirrer and maintained while stirring at 37° C. and 700 rpm. […] After mixing at 37° C. for 24 hours, 300 μL of the suspension was separated from each vial and analyzed.
The analysis sample was centrifuged at 14000 rpm for 5 minutes, and then the supernatant was diluted 10-fold with ACN:H2O (7/3, v/v) and analyzed by ultra-performance liquid chromatography (UPLC).

[2] = Physicochemical stability test of free form and 5 salts (60° C., 40° C./75% humidity, light); details: for Final purity: HPLC
Protocol: In the case of a light stability test, the vial was stored in a light stability test chamber while being not closed with a lid, and exposed to a total illuminance of 1.2 million lux-hr. A vial light-shielded with aluminum foil was used as an experimental control (Dark control). For stability assessment, state assessment by visual observation, purity assessment using HPLC, and crystalline form assessment using XRPD were conducted, and results thereof are shown in Table 7. […] In FIGS. 19 to 30, “Light” represents light irradiation condition results.

[3] = Solubility test of sulfate (Crystalline form III) in various solvents; assay type: physicochemical; details: thermodynamic from solid
Protocol: First, solvent screening was performed for a study on various crystalline forms.

[4] = Oral administration pharmacokinetic test using mice; details: mice, oral

Q: Which solubility at 24 h ([1]; FeSSIF (pH = 4.98), 37° C., after 24 hours, read-out: Solubility) does the source give for `O=S1(=O)CCN(Cc2cc(NC3CCOCC3)c3[nH]c(-c4ccccc4)cc3c2)CC1` [Sulfate] here?
A: 130 µg/mL

Q: What about the solubility at 24 h ([1]; summary Table 9, read-out: Stimulated gastrointestinal fluid solubility, FeSSIF) of the same compound?
A: 130 µg/mL

Q: What about the Assay ([2]; 1.2 million lux-hr) of the same compound?
A: 104.98%

Q: What about the Purity change ([2]; 1.2 million lux-hr) of the same compound?
A: +0.14%

Q: What about the XRPD patterns ([2]; 1.2 million lux-hr) of the same compound?
A: Pattern 2-I

Q: And the Final purity ([2]; 1.2 million lux-hr)?
A: 99.87%

Q: What about the Appearance ([2]; 40° C./75% RH, 1 w) of the same compound?
A: White powder

Q: And the Assay ([2]; 40° C./75% RH, 1 w)?
A: 109.86%

Q: And the Purity change ([2]; 40° C./75% RH, 1 w)?
A: −0.43%

Q: And the XRPD patterns ([2]; 40° C./75% RH, 1 w)?
A: Pattern 2-I

Q: And the Final purity ([2]; 40° C./75% RH, 1 w)?
A: 99.30%

Q: And the “Chemical stability (purity change %/1 w), 40° C./75% RH” value ([2]; 40° C./75% RH, 1 w, summary Table 9)?
A: −0.43%

Q: What about the Appearance ([2]; 60° C., 1 w) of the same compound?
A: White powder

Q: What about the Assay ([2]; 60° C., 1 w) of the same compound?
A: 110.59%

Q: What about the Purity change ([2]; 60° C., 1 w) of the same compound?
A: +0.1%

Q: What about the XRPD patterns ([2]; 60° C., 1 w) of the same compound?
A: Pattern 2-I

Q: What about the Final purity ([2]; 60° C., 1 w) of the same compound?
A: 99.83%

Q: And the “Chemical stability (purity change %/1 w), 60° C.” value ([2]; 60° C., 1 w, summary Table 9)?
A: 0.1%

Q: What about the “Sensitivity to heat, humidity and light conditions (in words)” value ([2]; 60° C., 40° C./75% humidity, 1.2 million lux-hr, listed as sulfate of the compound of Chemical Formula 1) of the same compound?
A: sensitive under a humidity condition; also recorded: comparable results to the free form of the compound of Chemical Formula 1 under high-temperature and light stability conditions, except for a humidity condition

Q: What about the Assay ([2]; Dark control) of the same compound?
A: 105.93%

Q: And the Purity change ([2]; Dark control)?
A: +0.02%

Q: And the XRPD patterns ([2]; Dark control)?
A: Pattern 2-I

Q: What about the Final purity ([2]; Dark control) of the same compound?
A: 99.75%

Q: What about the “Chemical stability (purity change %/1 w), Light stability” value ([2]; light stability, summary Table 9) of the same compound?
A: 0.14%

Q: What about the solubility ([3]; aqueous with cosolvent or surfactant or cyclodextrin, Acetic acid-H2O (1:1), 25° C., read-out: Solubility) of the same compound?
A: 196000 to 295000 µg/mL

Q: What about the solubility ([3]; aqueous with cosolvent or surfactant or cyclodextrin, Acetic acid-H2O (1:1), 50° C., read-out: Solubility) of the same compound?
A: 300000 to 599000 µg/mL

Q: What about the solubility ([3]; aqueous with cosolvent or surfactant or cyclodextrin, Acetone-H2O (1:2), 25° C., read-out: Solubility) of the same compound?
A: 9000 to 19000 µg/mL

Q: And the solubility ([3]; aqueous with cosolvent or surfactant or cyclodextrin, Acetone-H2O (1:2), 50° C., read-out: Solubility)?
A: 37000 to 75000 µg/mL

Q: What about the solubility ([3]; aqueous with cosolvent or surfactant or cyclodextrin, MeOH/H2O = 1:1(v/v), 25° C., read-out: Solubility) of the same compound?
A: 2000 to 3000 µg/mL

Q: And the solubility ([3]; aqueous with cosolvent or surfactant or cyclodextrin, MeOH/H2O = 1:1(v/v), 50° C., read-out: Solubility)?
A: 9000 to 19000 µg/mL

Q: And the solubility ([3]; aqueous with cosolvent or surfactant or cyclodextrin, in MeOH/H2O (1:1 (v:v)) and acetone/water (1:1 (v/v)), read-out: Solubility (good))?
A: 5000 to 40000 µg/mL

Q: What about the solubility ([3]; organic solvent or mixture, 1-Butanol, 25° C., read-out: Solubility) of the same compound?
A: < 2000 µg/mL

Q: What about the solubility ([3]; organic solvent or mixture, 1-Butanol, 50° C., read-out: Solubility) of the same compound?
A: < 2000 µg/mL

Q: What about the solubility ([3]; organic solvent or mixture, 2-MeTHF, 25° C., read-out: Solubility) of the same compound?
A: < 2000 µg/mL

Q: What about the solubility ([3]; organic solvent or mixture, 2-MeTHF, 50° C., read-out: Solubility) of the same compound?
A: < 2000 µg/mL

Q: And the solubility ([3]; organic solvent or mixture, ACN, 25° C., read-out: Solubility)?
A: < 2000 µg/mL

Q: What about the solubility ([3]; organic solvent or mixture, ACN, 50° C., read-out: Solubility) of the same compound?
A: < 2000 µg/mL

Q: And the solubility ([3]; organic solvent or mixture, Acetone, 25° C., read-out: Solubility)?
A: < 2000 µg/mL

Q: And the solubility ([3]; organic solvent or mixture, Acetone, 50° C., read-out: Solubility)?
A: < 2000 µg/mL

Q: What about the solubility ([3]; organic solvent or mixture, CHCl3, 25° C., read-out: Solubility) of the same compound?
A: < 2000 µg/mL

Q: What about the solubility ([3]; organic solvent or mixture, CHCl3, 50° C., read-out: Solubility) of the same compound?
A: < 2000 µg/mL

Q: And the solubility ([3]; organic solvent or mixture, DMF, 25° C., read-out: Solubility)?
A: 202000 to 302000 µg/mL

Q: What about the solubility ([3]; organic solvent or mixture, DMF, 50° C., read-out: Solubility) of the same compound?
A: 304000 to 608000 µg/mL

Q: And the solubility ([3]; organic solvent or mixture, DMSO, 25° C., read-out: Solubility)?
A: 158000 to 210000 µg/mL

Q: What about the solubility ([3]; organic solvent or mixture, DMSO, 50° C., read-out: Solubility) of the same compound?
A: 301000 to 602000 µg/mL

Q: What about the solubility ([3]; organic solvent or mixture, EtOAc, 25° C., read-out: Solubility) of the same compound?
A: < 2000 µg/mL

Q: What about the solubility ([3]; organic solvent or mixture, EtOAc, 50° C., read-out: Solubility) of the same compound?
A: < 2000 µg/mL

Q: And the solubility ([3]; organic solvent or mixture, EtOH, 25° C., read-out: Solubility)?
A: < 2000 µg/mL

Q: What about the solubility ([3]; organic solvent or mixture, EtOH, 50° C., read-out: Solubility) of the same compound?
A: < 2000 µg/mL

Q: And the solubility ([3]; organic solvent or mixture, Heptane, 25° C., read-out: Solubility)?
A: < 2000 µg/mL

Q: And the solubility ([3]; organic solvent or mixture, Heptane, 50° C., read-out: Solubility)?
A: < 2000 µg/mL

Q: And the solubility ([3]; organic solvent or mixture, IPA, 25° C., read-out: Solubility)?
A: < 2000 µg/mL

Q: And the solubility ([3]; organic solvent or mixture, IPA, 50° C., read-out: Solubility)?
A: < 2000 µg/mL

Q: What about the solubility ([3]; organic solvent or mixture, MEK, 25° C., read-out: Solubility) of the same compound?
A: < 2000 µg/mL

Q: What about the solubility ([3]; organic solvent or mixture, MEK, 50° C., read-out: Solubility) of the same compound?
A: < 2000 µg/mL

Q: And the solubility ([3]; organic solvent or mixture, MIBK, 25° C., read-out: Solubility)?
A: < 2000 µg/mL

Q: What about the solubility ([3]; organic solvent or mixture, MIBK, 50° C., read-out: Solubility) of the same compound?
A: < 2000 µg/mL

Q: And the solubility ([3]; organic solvent or mixture, MTBE, 25° C., read-out: Solubility)?
A: < 2000 µg/mL

Q: What about the solubility ([3]; organic solvent or mixture, MTBE, 50° C., read-out: Solubility) of the same compound?
A: < 2000 µg/mL

Q: What about the solubility ([3]; organic solvent or mixture, MeOH, 25° C., read-out: Solubility) of the same compound?
A: < 2000 µg/mL

Q: And the solubility ([3]; organic solvent or mixture, MeOH, 50° C., read-out: Solubility)?
A: 2000 to 3000 µg/mL

Q: And the solubility ([3]; organic solvent or mixture, NMP, 25° C., read-out: Solubility)?
A: 156000 to 208000 µg/mL

Q: And the solubility ([3]; organic solvent or mixture, NMP, 50° C., read-out: Solubility)?
A: 202000 to 304000 µg/mL

Q: What about the solubility ([3]; organic solvent or mixture, THF, 25° C., read-out: Solubility) of the same compound?
A: < 2000 µg/mL

Q: What about the solubility ([3]; organic solvent or mixture, THF, 50° C., read-out: Solubility) of the same compound?
A: < 2000 µg/mL

Q: And the solubility ([3]; organic solvent or mixture, Toluene, 25° C., read-out: Solubility)?
A: < 2000 µg/mL

Q: And the solubility ([3]; organic solvent or mixture, Toluene, 50° C., read-out: Solubility)?
A: < 2000 µg/mL

Q: What about the solubility ([3]; organic solvent or mixture, iPrOAc, 25° C., read-out: Solubility) of the same compound?
A: < 2000 µg/mL

Q: What about the solubility ([3]; organic solvent or mixture, iPrOAc, 50° C., read-out: Solubility) of the same compound?
A: < 2000 µg/mL

Q: What about the solubility ([3]; organic solvent or mixture, in DMF, NMP, DMSO and acetic acid/water (1:1 (v:v)), read-out: Solubility (excellent)) of the same compound?
A: ≥ 150000 µg/mL

Q: And the solubility ([3]; organic solvent or mixture, in methanol, ethanol, isopropanol, 1-butanol, acetonitrile, acetone, MEK, MIBK, ethyl acetate, isopropyl acetate, MTBE, tetrahydrofuran, chloroform, toluene, heptane and water, read-out: Solubility (low))?
A: ≤ 5000 µg/mL

Q: And the solubility ([3]; Water, 25° C., read-out: Solubility)?
A: < 2000 µg/mL

Q: And the solubility ([3]; Water, 50° C., read-out: Solubility)?
A: < 2000 µg/mL

Q: What about the Cmax ([4]; 10 mg/kg) of the same compound?
A: 3154.8 ng/mL

Q: And the t½ ([4]; 10 mg/kg)?
A: 4.0 h

Q: And the AUClast ([4]; 10 mg/kg, listed as sulfate of the compound of Chemical Formula 1, 10 mg/kg)?
A: 11499.35 ng·h/mL

Q: And the “Pharmacokinetic test, t½” value ([4]; summary Table 9)?
A: 4 h
